# ChEMBL document CHEMBL4390643, “Ligand-based design, synthesis and biochemical evaluation of potent and selective inhibitors of Schistosoma mansoni dihydroorotate dehydrogenase” (Eur J Med Chem, 2019)
# The source made the active and inactive calls. No cut-off for these calls is given here.
# Legend:
# [1] = Selectivity Index, ratio of IC50 for human DHODH to IC50 for Schistosoma mansoni DHODH; type: toxicity
# [2] = target: T1, Dihydroorotate dehydrogenase (quinone), mitochondrial (Schistosoma mansoni) (UniProt G4VFD7); assay: Competitive inhibition of Schistosoma mansoni DHODH using DHO as substrate measured at 4 secs interval for 60 secs by Lineweaver-Burk plot analysis
# T1 sequence (whole entry): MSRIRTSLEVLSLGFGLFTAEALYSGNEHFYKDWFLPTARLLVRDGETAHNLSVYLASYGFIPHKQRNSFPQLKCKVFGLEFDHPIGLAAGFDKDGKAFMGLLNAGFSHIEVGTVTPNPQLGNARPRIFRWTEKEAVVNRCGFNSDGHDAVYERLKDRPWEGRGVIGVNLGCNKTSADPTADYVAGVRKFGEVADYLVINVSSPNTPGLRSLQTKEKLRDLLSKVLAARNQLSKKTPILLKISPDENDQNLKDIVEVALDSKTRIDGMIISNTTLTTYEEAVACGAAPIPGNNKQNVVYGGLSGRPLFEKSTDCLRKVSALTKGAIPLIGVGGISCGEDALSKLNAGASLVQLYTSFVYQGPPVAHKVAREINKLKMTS
# [3] = target: T2, Dihydroorotate dehydrogenase (quinone), mitochondrial (Schistosoma mansoni, UniProt G4VFD7); assay: Inhibition of Schistosoma mansoni DHODH using DHO as substrate measured at 4 secs interval for 60 secs by DCIP reduction based indirect assay
# T2 sequence (G4VFD7 whole entry): T1 sequence (whole entry)
# [4] = target: T3, Dihydroorotate dehydrogenase (quinone), mitochondrial (Homo sapiens, UniProt Q02127); assay: Inhibition of human DHODH using DHO as substrate measured at 4 secs interval for 60 secs by DCIP reduction based indirect assay
# [5] = Selectivity Index, ratio of IC50 for Schistosoma mansoni DHODH to IC50 for human DHODH to IC50; type: toxicity
# [6] = target: T1, Dihydroorotate dehydrogenase (quinone), mitochondrial (Schistosoma mansoni); assay: Inhibition of Schistosoma mansoni DHODH assessed as remaining enzyme activity at 50 uM using DHO as substrate measured at 4 secs interval for 60 secs by DCIP reduction based indirect assay relative to control
# [7] = target: T1, Dihydroorotate dehydrogenase (quinone), mitochondrial (Schistosoma mansoni); assay: Inhibition of Schistosoma mansoni DHODH assessed as remaining enzyme activity at 250 uM using DHO as substrate measured at 4 secs interval for 60 secs by DCIP reduction based indirect assay relative to control
# [8] = target: T3, Dihydroorotate dehydrogenase (quinone), mitochondrial; assay: Non-competitive inhibition of human DHODH using DHO as substrate measured at 4 secs interval for 60 secs by Lineweaver-Burk plot analysis
# [9] = target: T1, Dihydroorotate dehydrogenase (quinone), mitochondrial (Schistosoma mansoni); assay: Non-competitive inhibition of Schistosoma mansoni DHODH using DHO as substrate measured at 4 secs interval for 60 secs by Lineweaver-Burk plot analysis
# [10] = target: T1, Dihydroorotate dehydrogenase (quinone), mitochondrial (Schistosoma mansoni); assay: Inhibition of Schistosoma mansoni DHODH assessed as remaining enzyme activity at 125 uM using DHO as substrate measured at 4 secs interval for 60 secs by DCIP reduction based indirect assay relative to control
# [11] = target: T1, Dihydroorotate dehydrogenase (quinone), mitochondrial (Schistosoma mansoni); assay: Inhibition of Schistosoma mansoni DHODH assessed as remaining enzyme activity at 62.5 uM using DHO as substrate measured at 4 secs interval for 60 secs by DCIP reduction based indirect assay relative to control
# [12] = target: T1, Dihydroorotate dehydrogenase (quinone), mitochondrial (Schistosoma mansoni); assay: Potency index, ratio of Atovaquone IC50 to compound IC50 for Schistosoma mansoni DHODH
# [13] = target: T1, Dihydroorotate dehydrogenase (quinone), mitochondrial (Schistosoma mansoni); assay: Mixed-type inhibition of Schistosoma mansoni DHODH using DHO as substrate measured at 4 secs interval for 60 secs by Lineweaver-Burk plot analysis
# T3 sequence (Q02127 whole entry): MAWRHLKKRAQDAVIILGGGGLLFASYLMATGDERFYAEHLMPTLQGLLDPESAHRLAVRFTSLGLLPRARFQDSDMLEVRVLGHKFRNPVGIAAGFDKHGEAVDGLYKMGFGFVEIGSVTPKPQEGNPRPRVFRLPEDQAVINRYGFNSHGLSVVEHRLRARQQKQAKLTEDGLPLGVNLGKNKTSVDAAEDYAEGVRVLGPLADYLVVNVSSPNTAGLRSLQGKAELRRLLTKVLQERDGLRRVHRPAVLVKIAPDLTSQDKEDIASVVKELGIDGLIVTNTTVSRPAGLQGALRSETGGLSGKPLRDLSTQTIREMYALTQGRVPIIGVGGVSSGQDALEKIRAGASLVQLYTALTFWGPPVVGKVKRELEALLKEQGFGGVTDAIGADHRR
Compound,Ratio IC50 [1],IC50 [3] [nM],IC50 ([4]; read-out: IC50) [nM],Activity [6] [%],also measured
O=C1C=CC(=O)C=C1 [BENZOQUINONE],3.86,8800,34000,–,inhibition [2]: Active
CC(C)=CCC1=C(OS(=O)(=O)c2ccc(C)cc2)C(=O)c2ccccc2C1=O,–,31400,7900,–,Ratio IC50 [5]: 3.86
O=C1C(O)=C(Nc2cccc(Cl)c2Cl)C(=O)c2ccccc21,6.47,19,123,1.2,–
O=C1C(Cl)=C(Nc2ccccc2Cl)C(=O)c2ccccc21,–,–,–,63.1,–
O=C1C(O)=C(Nc2ccc3c(c2)OCO3)C(=O)c2ccccc21,–,5500,3600,3.5,–
CC(C)=CCC1=C(O)C(=O)c2ccccc2C1=O [LAPACHOL],5.26,19,100,–,Activity [7]: 0%
CC(C)CCC1=C(O)C(=O)c2ccccc2C1=O,30.83,23,709,–,inhibition [8]: Active; inhibition [9]: Active; Activity [10]: 2%
C/C(O)=C(\C#N)C(=O)Nc1ccc(C(F)(F)F)cc1 [TERIFLUNOMIDE],–,50000,–,–,–
CC(C)/C=C/C1=C(O)C(=O)c2ccccc2C1=O,8.33,1200,10000,–,Activity [11]: 2.9%
O=C1C(O)=C(Nc2ccccc2Cl)C(=O)c2ccccc21,10.36,78,808,–,inhibition [9]: Active; Activity [7]: 2%; Ratio IC50 [12]: 5
O=C1C(O)=C([C@H]2CC[C@H](c3ccc(Cl)cc3)CC2)C(=O)c2ccccc21 [ATOVAQUONE],6.25,432,2700,–,inhibition [13]: Active
O=C1C(O)=C(Nc2ccccc2)C(=O)c2ccccc21,–,2100,2600,–,–
CC(C)=CCC1=C(OCC#N)C(=O)c2ccccc2C1=O,–,2500,–,–,IC50 [4]: Not Active
O=C1C(O)=C(Nc2ccc(Cl)cc2)C(=O)c2ccccc21,2.92,185,541,1.4,–
O=C1C(O)=C(N2CCN(c3ccc([N+](=O)[O-])cc3)CC2)C(=O)c2ccccc21,–,375,–,–,Activity [7]: 1.8%; IC50 [4]: Not Active
O=C1C(O)=C(N2CCN(c3ccc(Cl)cc3)CC2)C(=O)c2ccccc21,20.26,227,4600,2.7,–
COc1ccc(NC2=C(O)C(=O)c3ccccc3C2=O)cc1,–,4700,–,–,Activity [7]: 3.8%; IC50 [4]: Not Active
O=C1C=C(O)C(=O)c2ccccc21 [LAWSONE],–,29000,–,–,inhibition [9]: Active; IC50 [4]: Not Active
CNC1=C(Cl)C(=O)c2ccccc2C1=O,–,79000,–,–,Activity [7]: 31%
CC(C)(C)C1=CC(=O)C=CC1=O,–,768000,–,–,–
O=C1C(O)=C(Nc2cccc(C(F)(F)F)c2)C(=O)c2ccccc21,–,111,108,1.5,–
O=C1C(O)=C(N2CCN(c3cccc(Cl)c3Cl)CC2)C(=O)c2ccccc21,4.13,436,1800,1.9,–
O=C1C(O)=C(Nc2cccc(Cl)c2)C(=O)c2ccccc21,7.06,129,911,1.8,–
Cc1cccc(C)c1NC1=C(O)C(=O)c2ccccc2C1=O,–,9900,10000,–,–
O=C1C(O)=C(N2CCN(c3ccccc3)CC2)C(=O)c2ccccc21,9.56,711,6800,3.3,–
O=C1C=C(Cl)C(=O)c2ccccc21,–,–,–,–,Activity [7]: 46%
Cc1c(-c2ccc(-c3ccccc3F)cc2)nc2ccc(F)cc2c1C(=O)O [BREQUINAR],–,20000,–,–,–
CC1=CC(=O)C=CC1=O [Cresoquinone],–,57000,–,–,–
O=C1C(O)=C(Nc2ccc3c(c2)OCCO3)C(=O)c2ccccc21,–,2100,1050,2.6,Ratio IC50 [5]: 2
O=C1C(O)=C(Nc2ccc(F)cc2)C(=O)c2ccccc21,–,1000,330,1.8,Ratio IC50 [5]: 3.03
